Assay results published in publication PMC11240139, “Exploring the antitumor potential of novel quinoline derivatives via tubulin polymerization inhibition in breast cancer; design, synthesis and molecular docking” (RSC Advances, 2024).
Entries after “also recorded” stand apart in the source; their conditions may differ.

Tests used:
[1] = system: β-tubulin mRNA in MDA-MB-231 cells; test: Tubulin expression assay (real-time PCR); type: cell-based; conditions: MDA-MB-231, IC50 dose, 48 h, normalized to β-actin
Description: The cells were seeded in a six-well plate at a concentration of 3 × 10^5 cells per well. […] The cells were washed, collected and centrifuged at 2500 rpm for 15 min at 4 °C. The total RNA isolation kit (RNeasy extraction kit – QIAGEN) was used to isolate RNA according to the manufacturer's instructions.
Gene expression of β-tubulin was determined using iScript One-Step RT-PCR kit with SYBR Green (BIORAD) according to the manufacturer protocol. Primers sequences used for qPCR are illustrated in (Table 5). The genes expression was normalized to β-actin as the housekeeping gene. The protocol used was cDNA synthesis for 10 min at 50 °C, iScript Reverse transcriptase inactivation for 5 min at 95 °C and PCR cycling and detection (30 to 45 cycles): 10 s at 95 °C and 30 s at 55 °C to 60 °C.

tubulin = target: T1, tubulin (Sus scrofa, UniProt P02550+P02554); test: Tubulin polymerization inhibition assay; type: biochemical
T1 construct: purchased Cytoskeleton, USA
T1 sequence (P02554 whole entry): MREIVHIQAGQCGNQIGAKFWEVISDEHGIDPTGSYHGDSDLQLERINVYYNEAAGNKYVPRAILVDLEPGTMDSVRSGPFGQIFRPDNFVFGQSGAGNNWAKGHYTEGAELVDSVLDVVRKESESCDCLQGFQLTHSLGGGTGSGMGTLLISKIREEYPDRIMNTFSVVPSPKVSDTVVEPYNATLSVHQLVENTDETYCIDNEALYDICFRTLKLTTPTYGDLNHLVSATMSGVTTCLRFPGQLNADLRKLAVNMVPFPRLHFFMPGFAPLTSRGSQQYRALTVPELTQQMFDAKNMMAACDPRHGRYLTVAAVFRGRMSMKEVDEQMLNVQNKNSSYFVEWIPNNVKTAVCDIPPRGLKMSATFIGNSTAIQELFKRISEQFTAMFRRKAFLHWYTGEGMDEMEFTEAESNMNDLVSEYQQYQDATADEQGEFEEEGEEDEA
T1 sequence (P02550 whole entry): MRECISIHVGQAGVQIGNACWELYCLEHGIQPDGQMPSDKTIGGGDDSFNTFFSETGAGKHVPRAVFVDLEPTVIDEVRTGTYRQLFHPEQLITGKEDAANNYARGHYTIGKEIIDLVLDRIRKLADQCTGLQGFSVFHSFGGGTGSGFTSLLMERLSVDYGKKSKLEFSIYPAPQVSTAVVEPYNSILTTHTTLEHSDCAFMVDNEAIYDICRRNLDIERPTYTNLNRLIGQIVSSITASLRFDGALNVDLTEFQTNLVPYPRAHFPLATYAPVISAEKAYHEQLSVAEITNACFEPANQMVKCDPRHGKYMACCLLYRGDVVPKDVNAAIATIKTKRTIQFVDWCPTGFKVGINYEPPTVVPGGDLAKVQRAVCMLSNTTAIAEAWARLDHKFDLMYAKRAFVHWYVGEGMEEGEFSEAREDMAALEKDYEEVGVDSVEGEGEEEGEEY
Description: Tubulin polymerization inhibition assay was performed using Tubulin Polymerization Assay Kit (Cytoskeleton, USA). 2 mg mL^−1 tubulin was dissolved in 80 mM PIPES pH 6.9, 2.0 mM MgCl2, 0.5 mM EGTA, 1.0 mM GTP and 15% glycerol. A 96-well plate was warmed to 37 °C for 10 minutes. Serial dilutions of the test compounds were prepared. The assay components were mixed. Polymerization was monitored using a plate reader at 360 nm and emission at 420 nm at 37 °C every 1 min intervals for 60 min. A dose–response curve was generated and the IC50 for tubulin polymerization inhibition was calculated.

MDA-MB-231 cells = test: Cell apoptosis analysis (annexin V-FITC/PI); type: cell-based; conditions: MDA-MB-231, IC50 dose, 24 h
Description: Annexin-V-FITC Apoptosis Detection Kit (Biovision, USA) was used to determine apoptotic cells according to manufacturer's instructions. Briefly, MDA-MB 231 cells (2 × 10^5 cells) were seeded in 6-well plates and cultured for 24 h. […] Cells were collected, washed with PBS and centrifuged. The cells were re-suspended in 500 μL of 1× binding buffer. 5 μL of annexin V-FITC and 5 μL of propidium iodide (PI […]) were added and the cells were incubated in the dark at room temperature for 5 min. The fluorescence of the stained cells was analyzed by flow cytometry using FACSCalibur (BD Biosciences, Mountain View, CA). The data were analyzed using the CellQuest software (BD Biosciences).[53,54]

CCc1cccc2cc(-c3cc(-c4cc(OC)c(OC)c(OC)c4)[nH]c(=O)c3C#N)c(Cl)nc12 [Compound 4c, 4-(2-Chloro-8-ethylquinolin-3-yl)-2-oxo-6-(3,4,5-trimethoxyphenyl)-1,2-dihydropyridine-3-carbonitrile]
β-tubulin mRNA levels (relative gene expression) vs non-treated cells [1]: notably reduced; also recorded: significantly suppressed; also recorded: markedly reduced | IC50 (tubulin): 17 ± 0.3 µM | Early Apoptosis (%) (MDA-MB-231 cells): 7.44 ± 1.59% | Late Apoptosis (%) (MDA-MB-231 cells): 17.1 ± 1.9% | Necrosis (%) (MDA-MB-231 cells): 4.61 + 2%
